For test [1], the system named is Phytophthora infestans lycopersici (PHYTIN) on tomatoes. It is filed as in vivo. As to conditions: 100 ppm foliar spray; tomatoes inoculated one day after chemical application (Prot).
Test [2] concerns Puccinia recondita (PUCCRT) on wheat. Particulars: in vivo.
Test [3] relates to Pyricularia oryzae (PYRIOR) on rice. It is filed as in vivo. As to conditions: 100 ppm foliar spray; rice inoculated one day after chemical application (Prot).
Test [4] concerns Uncinula necator (UNCINE) on vines. As to conditions: in vivo.

In the case of `CCCn1nc2ccc(CC(=O)Nc3snc(C)c3Cl)cc2n1` [Sample 1, N-(4-chloro-3-methylisothiazol-5-yl)-(2-propylbenzotriazol-5-yl)acetamide], the “PRCO (Percentage Reduction from Control) PHYTIN Prot” value in test [1] turned out to be 100%. Also, in test [2], the “PRCO (Percentage Reduction from Control) PUCCRT Prot” value is 100%. The “PRCO (Percentage Reduction from Control) PYRIOR Prot” value in test [3] is reported as 100%.

For the compound `Cc1nsc(NC(=O)Cc2ccc3nn(C)nc3c2)c1Cl` [Sample 2], the “PRCO (Percentage Reduction from Control) PYRIOR Prot” value in test [3] was 87%.

Turning to `Cc1nsc(NC(=O)Cc2ccc3nn(Cc4ccc(F)cc4)nc3c2)c1Cl` [Sample 4], the “PRCO (Percentage Reduction from Control) PYRIOR Prot” value in test [3] is 92%.

In the case of `Cc1nsc(NC(=O)Cc2ccc3nn(CC(F)(F)F)nc3c2)c1Cl` [Sample 8], in test [3], the “PRCO (Percentage Reduction from Control) PYRIOR Prot” value amounted to 100%.

On to `CCCCCn1nc2ccc(CC(=O)Nc3snc(C)c3Cl)cc2n1` [Sample 9], for which the “PRCO (Percentage Reduction from Control) PHYTIN Prot” value in test [1] was found to be 100%. Moreover, the “PRCO (Percentage Reduction from Control) PUCCRT Prot” value in test [2] amounted to 99%. Besides, in test [3], the “PRCO (Percentage Reduction from Control) PYRIOR Prot” value is reported as 100%.

`Cc1nsc(NC(=O)Cc2ccc3nn(-c4ccc(C(F)(F)F)cc4Cl)nc3c2)c1Cl` [Sample 11]: the “PRCO (Percentage Reduction from Control) PYRIOR Prot” value in test [3] came to 100%.

Regarding `CCCC(C)n1nc2ccc(CC(=O)Nc3snc(C)c3Cl)cc2n1` (stereo not shown) [Sample 30], the “PRCO (Percentage Reduction from Control) PHYTIN Prot” value in test [1] is on record as 100%. Also, the “PRCO (Percentage Reduction from Control) PUCCRT Prot” value in test [2] is 100%. The “PRCO (Percentage Reduction from Control) UNCINE Erad” value in test [4] was found to be 100%.

With `CCC(C)n1nc2ccc(CC(=O)Nc3snc(C)c3Cl)cc2n1` (stereo not shown) [Sample 31], the “PRCO (Percentage Reduction from Control) PHYTIN Prot” value in test [1] was found to be 100%. In test [2], the “PRCO (Percentage Reduction from Control) PUCCRT Prot” value was 100%. In addition, in test [4], the “PRCO (Percentage Reduction from Control) UNCINE Erad” value stood at 100%.

For `CCCn1nc2ccc(CC(=O)N=c3sn(COCC)c(C)c3Cl)cc2n1` [Sample 34, N-[2-ethoxymethyl-4-chloro-3-methylisothiazolin-5-ylidene]-(2-propylbenzo-triazol-5-yl)acetamide], the “PRCO (Percentage Reduction from Control) PHYTIN Prot” value in test [1] came to 81%. Further, in test [3], the “PRCO (Percentage Reduction from Control) PYRIOR Prot” value is given as 93%. In test [4], the “PRCO (Percentage Reduction from Control) UNCINE Erad” value turned out to be 100%.

(Values after US7112553B1, “Pesticidal indazole or benzotriazole derivatives” (Syngenta Limited, priority 1999, dated 2006).)
